# Reference: patent US20250270227A1, “CAMPTOTHECIN DERIVATIVE, AND PHARMACEUTICAL COMPOSITION AND USE THEREOF” (SIMCERE ZAIMING PHARMACEUTICAL CO., LTD., priority 2021, published 2025)
# Like-named read-outs stand apart in the source and are kept apart here.
# Tests used:
# [1] = tested on: Human colorectal cancer cell line HCT116; test: Test 1 of anti-proliferative activity against tumor cells (Cell-Titer Glo); assay type: cell-based
# Method in brief: (§1)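 HCT116, SKBR3 and OVCAR3 cells seeded 24 h, then treated with 9-point 3-fold dilutions (final 0-300 nM); HCT116 incubated 3 days, SKBR3 and OVCAR3 5 days at 37° C, 5% CO2. Viability by Cell-Titer Glo luminescence, inhibition normalised to DMSO and no-cell wells, IC50 fitted.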
# [2] = tested on: human breast cancer cell line SKBR3; test: as above; assay type: cell-based
# Method in brief: as §1
# [3] = tested on: human ovarian cancer cell line OVCAR3; test: as above; assay type: cell-based
# Method in brief: as §1
# CYP2C9 = CYP2C9 (Homo sapiens (Human), UniProt P11712); test: Inhibitory effect on CYP enzymatic activity in human liver microsomes; assay type: in vitro ADME
# Chain of CYP2C9 (P11712 whole entry): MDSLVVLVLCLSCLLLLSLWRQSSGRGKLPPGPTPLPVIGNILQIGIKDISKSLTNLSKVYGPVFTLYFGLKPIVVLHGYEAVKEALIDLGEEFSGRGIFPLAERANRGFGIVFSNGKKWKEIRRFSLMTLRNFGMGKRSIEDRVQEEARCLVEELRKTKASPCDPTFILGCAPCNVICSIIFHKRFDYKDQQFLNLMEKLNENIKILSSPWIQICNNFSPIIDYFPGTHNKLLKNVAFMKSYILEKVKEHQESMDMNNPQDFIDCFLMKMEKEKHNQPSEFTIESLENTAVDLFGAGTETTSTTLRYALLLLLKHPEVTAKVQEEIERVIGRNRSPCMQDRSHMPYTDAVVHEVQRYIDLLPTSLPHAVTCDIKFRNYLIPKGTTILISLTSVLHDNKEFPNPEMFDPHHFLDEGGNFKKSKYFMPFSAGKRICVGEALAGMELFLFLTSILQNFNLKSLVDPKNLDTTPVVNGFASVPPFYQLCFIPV
# Experimental: (§2) The inhibition of CYP2C9, CYP2D6 and CYP3A4 enzymatic activities by the compounds of the present disclosure was determined by the following experimental method.
# (§3) • 1. Human liver microsomes (Corning 452117) • 2. NADPH (Solarbio 705Y021) • 3. Positive substrates diclofenac (Sigma SLBV3438), dextromethorphan (TRC 3-EDO-175-1) and midazolam (Cerilliant FE01161704) • 4. Positive inhibitors sulfaphenazole (D. Ehrenstorfer GmbH 109012), quinidine (TCI WEODL-RE) and ketoconazole (Sigma 100M1091V) • 5. AB Sciex Triple Quad 5500 liquid chromatography-mass spectrometry
# (§4) • 1. Preparation of 100 mM phosphate buffered saline (PBS): 7.098 g of Na2HPO4 was weighed, 500 mL of pure water was added and subjected to ultrasonic dissolution to obtain solution A. 3.400 g of KH2PO4 was weighed, 250 mL of pure water was added and subjected to ultrasonic dissolution to obtain solution B. Solution A was placed on a stirrer and solution B was slowly added until the pH value reached 7.4 to prepare 100 mM PBS buffer. • 2. Preparation of 10 mM NADPH solution with 100 mM PBS buffer. The 10 mM stock solution of the compound of the present disclosure was diluted with DMSO to obtain a 200× concentration of compound working solution (6000, 2000, 600, 200, 60, 20, 0 μM). The stock solution of positive inhibitors was diluted with DMSO to obtain a 200× concentration of positive inhibitor working solution (sulfaphenazole, 1000, 300, 100, 30, 10, 3, 0 μM; quinidine/ketoconazole, 100, 30, 10, 3, 1, 0.3, 0 μM). A 200× concentration of substrate working solution (120 μM diclofenac, 400 μM dextromethorphan, and 200 μM midazolam) was prepared with water, acetonitrile, or acetonitrile/methanol. • 3. 2 μL of 20 mg/ml liver microsome solution, 1 μL of substrate working solution, 1 μL of compound working solution and 176 μL of PBS buffer were taken, mixed uniformly, and pre-incubated in a 37° C. water bath for 15 min. To the positive control group was added 1 μL of sulfaphenazole, quinidine or ketoconazole working solution instead of compound working solution. A 10 mM NADPH solution was also pre-incubated in the 37° C. water bath for 15 min. After 15 min, 20 μL of NADPH was taken and added to each well to initiate the reaction, and the reaction was incubated at 37° C. for 5 min (CYP2C9), 20 min (CYP2D6) or 5 min (CYP3A4). Double samples were set for all incubation samples. After the corresponding time of incubation, 400 μL of glacial methanol containing internal standard was added to all samples to stop the reaction. The mixture was mixed uniformly by vortex and centrifuged at 3220 g for 40 min at 4° C. After the completion of the centrifugation, 100 μL of the supernatant was transferred to a loading plate, and 100 μL of ultrapure water was added and mixed uniformly for LC-MS/MS analysis.
# (§5) The reduction in metabolite production in the administration group compared to the control group was compared by the ratio of sample peak area to internal standard peak area, and IC50 value was calculated by Excel XLfit 5.3.1.3.
# (§6) The percent remaining activity was calculated by the following equation: […]
# CYP2D6 = CYP2D6 (Homo sapiens (Human), UniProt P10635); test: as above; assay type: in vitro ADME
# Chain of CYP2D6 (P10635 whole entry): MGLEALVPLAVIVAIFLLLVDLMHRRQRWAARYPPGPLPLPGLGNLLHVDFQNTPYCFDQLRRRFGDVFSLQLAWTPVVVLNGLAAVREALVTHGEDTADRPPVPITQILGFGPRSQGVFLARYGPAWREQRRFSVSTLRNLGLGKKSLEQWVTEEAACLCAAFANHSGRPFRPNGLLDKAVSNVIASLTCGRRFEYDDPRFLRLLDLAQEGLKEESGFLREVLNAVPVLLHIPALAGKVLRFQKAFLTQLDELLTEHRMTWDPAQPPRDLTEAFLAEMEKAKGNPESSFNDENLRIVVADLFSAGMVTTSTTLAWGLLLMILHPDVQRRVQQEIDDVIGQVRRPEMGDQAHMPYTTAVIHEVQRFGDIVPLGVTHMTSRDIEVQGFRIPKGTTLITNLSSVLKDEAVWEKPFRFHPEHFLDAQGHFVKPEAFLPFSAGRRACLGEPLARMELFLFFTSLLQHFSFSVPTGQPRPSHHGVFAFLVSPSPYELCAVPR
# Experimental: as §2, §3, §4, §5, §6
# [4] = Homo sapiens, HCT-116, 72 h, HCT116 cells, cultured 3 days with compound, Cell-Titer Glo, read-out: HCT116 Anti-proliferative activity IC50
# [5] = Homo sapiens, SK-BR-3, 120 h, SKBR3 cells, cultured 5 days with compound, Cell-Titer Glo, read-out: SKBR3 Anti-proliferative activity IC50
# [6] = Homo sapiens, OVCAR-3, 120 h, OVCAR3 cells, cultured 5 days with compound, Cell-Titer Glo, read-out: OVCAR3 Anti-proliferative activity IC50
# [7] = Homo sapiens, HCT-116, 72 h, read-out: HCT116 Anti-proliferative activity IC50 (nM), HCT116 cells, cultured 3 days with compound, Cell-Titer Glo
# [8] = Homo sapiens, SK-BR-3, 120 h, read-out: SKBR3 Anti-proliferative activity IC50 (nM), SKBR3 cells, cultured 5 days with compound, Cell-Titer Glo
SMILES,"IC50 [1, 4]","IC50 [2, 5]","IC50 [3, 6]",IC50 (CYP2C9),IC50 (CYP2D6),"IC50 [1, 7]","IC50 [2, 8]","IC50 ([3]; Homo sapiens, OVCAR-3, 120 h, read-out: OVCAR3 Anti-proliferative activity IC50 (nM))","IC50 ([1]; read-out: HCT116 Anti-proliferative activity IC50, HCT116 cells, cultured 3 days with compound, Cell-Titer Glo)","IC50 ([2]; read-out: SKBR3 Anti-proliferative activity IC50, SKBR3 cells, cultured 5 days with compound, Cell-Titer Glo)","IC50 ([3]; OVCAR3 cells, cultured 5 days with compound, Cell-Titer Glo, read-out: OVCAR3 Anti-proliferative activity IC50)","IC50 (CYP2C9; read-out: Inhibition on CYP2C9 IC50, human liver microsomes, substrate diclofenac)","IC50 (CYP2D6; read-out: Inhibition on CYP2D6 IC50, human liver microsomes, substrate dextromethorphan)"
"[2H]C1([2H])Oc2cc3nc4c(c(CNC(=O)C(O)C5CC5)c3cc2O1)Cn1c-4cc2c(c1=O)COC(=O)[C@]2(O)CC (stereo partly drawn) [Compound 39, 2-cyclopropyl-N-(((S)-7-ethyl-7-hydroxy-8,11-dioxo-7,8,11,13-tetrahydro-10H-[1,3]dioxolo[4,5-g]pyrano[3′,4′:6,7]indolizino[1,2-b]quinolin-14-yl-2,2-d2)methyl)-2-hydroxyacetamide]",9.5 nM,2.9 nM,1 nM,> 50000 nM,> 50000 nM,–,–,–,–,–,–,–,–
"CC[C@@]1(O)C(=O)OCc2c1cc1n(c2=O)Cc2c-1nc1cc3c(cc1c2CNC(=O)C(O)C1CC1)OCO3 (stereo partly drawn) [Compound 14, 2-cyclopropyl-N-(((S)-7-ethyl-7-hydroxy-8,11-dioxo-7,8,11,13-tetrahydro-10H-[1,3]dioxolo[4,5-g]pyrano[3′,4′:6,7]indolizino[1,2-b]quinolin-14-yl)methyl)-2-hydroxyacetamide]",–,–,–,–,–,8.4 nM,2.2 nM,0.9 nM,–,–,–,–,–
"CC[C@@]1(O)C(=O)OCc2c1cc1n(c2=O)Cc2c-1nc1cc3c(cc1c2CNC(=O)C(O)C1CC1)OCO3 (single isomer, unassigned) [Compound 14-P2]",–,–,–,–,> 50000 nM,–,–,–,12.4 nM,3.5 nM,1 nM,> 50000 nM,–
"CC[C@@]1(O)C(=O)OCc2c1cc1n(c2=O)Cc2c-1nc1cc3c(c(F)c1c2CNC(=O)[C@@H](O)C1CC1)OCO3 (single isomer, unassigned) [Compound 37-P1]",4.8 nM,2.1 nM,0.5 nM,> 50000 nM,> 50000 nM,–,–,–,–,–,–,–,–
"CC[C@@]1(O)C(=O)OCc2c1cc1n(c2=O)Cc2c-1nc1cc3c(cc1c2CNC(=O)C(O)C1CC1)OCO3 (single isomer, unassigned) [Compound 14-P1]",–,–,0.6 nM,> 50000 nM,–,9.8 nM,2.1 nM,–,–,–,–,–,> 50000 nM
